The values below come from paper PMC12914960, “Repurposing a detrimental antibody epitope as targeted therapeutics for sepsis and rheumatoid arthritis” (Military Medical Research, 2026).

“And” between values parts separate entries of the source, which are not always exact repeats. Equal entries are not always repeated. Where a SMILES comes first, the peptide text is derived from it.

For test [1], the system named is CAIA-induced joint cytokines and chemokines. In words: Cytokine antibody arrays of joint tissue of CAIA mice. The format is in vivo, mouse. Set-up: VCAM1 / sTNFRI / sTNFRII / MIP-1gamma / MIP2 / P-selectin: unit not given here. As for the experimental part: The levels of cytokines and chemokines in mouse serum and joint tissue lysates, or human PBMC culture supernatants, were determined via murine or human cytokine antibody arrays (e.g., Cat. #AAM-CYM-3–8 or Cat. #AAH-CYT-3–8, RayBiotech Inc., Norcross, GA, USA) as previously described. For the sepsis model, blood samples were collected from the mice (n = 4) at 24 h post-CLP. For the CAIA model, soft tissues from the hindpaw and ankle joints were carefully harvested from normal (n = 2) and CAIA (n = 4) mice using a previously established protocol. Briefly, 0.5 g of fresh soft tissue was cut into 3 mm pieces and mixed with 400 µl of a hypertonic solution (500 ml of PBS with 4.5 g of NaCl and 2 × protease inhibitor cocktail) in a 10 ml syringe. Mechanical extrusion, involving 30 rapid back-and-forth movements of the plunger, was then performed. The expelled extracellular fluid was collected, immediately aliquoted, and stored at −20 °C until analysis. Cell-conditioned medium was collected from PBMC cultures after 16 h of stimulation. Arrays were performed according to the manufacturer’s protocol, followed by chemiluminescent detection and densitometric quantification as previously described.
Fig. S5 Representative cytokine antibody arrays depicting the effect of P2- 1 on collagen antibody- induced
arthritis (CAIA)- induced joint inflammation. Representative images from cyt okine antibody arrays of j oint
tissue lysates from 4 vehicle-treated CAIA mice and 4 P2-1- treated CAIA mice (harvested on Day 10). […]

Another test has as its system human PBMCs. In words: RNA-seq of HMGB1-stimulated PBMCs. The format is cell-based. As for the experimental part:
Total RNA was isolated from human PBMCs (n = 6 biological replicates) stimulated with HMGB1 in the absence or presence of P2-1 (5.0 or 10.0 µg/ml) via the RNeasy Mini Kit (Qiagen, Germantown, MD, USA) according to the manufacturer’s instructions. cDNA libraries were prepared using the TruSeq RNA Library Prep Kit v2 (Illumina, San Diego, CA, USA) and sequenced on an Illumina NovaSeq 6000 platform to generate 100 bp paired-end reads. Gene counts were quantified via StringTie and DESeq2 for differential gene expression analysis. Volcano plots and heatmaps were generated via ggplot2 and pheatmap packages in R, respectively. Genes with an adjusted P-value < 0.05 and a |log2 fold change|> 1 were considered differentially expressed. […]
custom-synthesized (Gen Script, Piscataway, NJ, USA). P2 -1 was engineered to: i) increase solubility by removing a w ater-insoluble phenylalanine (F) at the C-terminal residue 70 and introducing a water-soluble threonine (T) at N-t erminal residue 54; and ii) reduce oxidative susceptibility by substituting methionine (M) with norleucine (Nle) and cysteine (C) with serine (S), respectively. The pCTS -L-neutralizing mAbs (mAb2) and TN-neutrali zing mAbs (mAb8 and m Ab9) were generated in BALB/c and C57BL/6 m ice as previously described .
RNA sequencing (RNA- Seq) and bioinformatics analysis
Total RNA was isolated from human PBMCs (n= 6 biological replicates) stimulated with HMGB1 in the absence o r pres ence o f P2-1 (5.0 or 10.0 µg/ml) via the RNeasy Mini Kit (Qiagen, Germantown, MD, USA) according to the manufacturer ’s instructions. RNA quantity and quality were assessed via a NanoDrop spectrophotometer, which requires A260/280 and A260/230 ratios to both be > 1.8. Samples meeting these criteria were then sent to two sequencing facilities, where RNA integrity was further confirmed via an Agilent Bioanalyzer. Only samples with an RNA integrity number of 8 or above were accepted for RNA sequencing. cDNA libraries were prepared using the TruSeq RNA Library Prep Kit v2 (Illumina, San Diego, CA, USA) and sequenced on an Illumina NovaSeq 6000 platform to generat e 100 bp paired-end reads. Our data filtering criteria adhered to industry best practices to ensure data quality.
First, raw sequencing reads underwent quality assessment with FastQC, followed by adapter and low-quality nucleotide trimming using Trimmomatic v.0.36. Subsequently, the high- quality reads wer e aligned to the Homo sapiens GRCh38 reference genome using the STAR aligner v.2.5.2b. Following alignment, PCR duplicates were identified and removed with Picard tools to mitigate amplification bias. Before differential expression an alysis, the gene count matrix was filtered to retain only genes with a count-per-million (CPM) > 1 in at least three samples (n = 3, representing our smallest experimental group). This rigorous procedure ensured that analysis was perfo rmed on a robust set of reliably expressed gen es. Finally, gene counts were quantified via StringTie and DESeq2 for differential gene expression analysis. Volcano

Where [2] appears, read: CAIA + P2-1, joint tissue Day 10, individual values, P = 0.00077753.

In the case of `CCCC[C@H](NC(=O)[C@H](Cc1c[nH]cn1)NC(=O)[C@@H](NC(=O)[C@H](CCCCN)NC(=O)[C@@H](N)[C@@H](C)O)C(C)C)C(=O)N[C@@H](CCCCN)C(=O)N[C@@H](CO)C(=O)N[C@@H](Cc1ccccc1)C(=O)N[C@@H](CC(C)C)C(=O)N[C@@H](C)C(=O)N[C@@H](Cc1ccccc1)C(=O)N[C@@H](CCC(N)=O)C(=O)N[C@H](C(=O)N[C@@H](CCCCN)C(=O)N[C@H](C(=O)O)[C@@H](C)O)[C@@H](C)O` [P2-1] (HELM PEPTIDE1{T.K.V.H.[Nle].K.S.F.L.A.F.Q.T.K.T}$$$$V2.0; N-terminus and C-terminus assumed), the VCAM1 in test [1] (CAIA + P2-1, joint tissue Day 10, individual values, P = 0.0007706) was 4 and 4.5 and 8.2 and 10.3 and 3.3 and 1.2 and 0.7. In test [1] (setting [2]), the sTNFRI is 23.4 and 20.4 and 17.4 and 17 and 24.9 and 22.3 and 40 and 36.8; the sTNFRII was 12.4 and 11.7 and 6.5 and 5.7 and 3.2 and 2.8 and 5.8 and 5.9. In test [1] (CAIA + P2-1, joint tissue Day 10, individual values, P = 0.00163), the MIP-1gamma is 39.6 and 44.2 and 29 and 33.7 and 41.8 and 44.8 and 49.9 and 50.4. Further, the MIP2 in test [1] (CAIA + P2-1, joint tissue Day 10, individual values, P = 0.02067) is 2.5 and 2.7 and 4.3 and 4.8 and 5.9 and 7.2 and 5.1 and 5.2. In addition, the P-selectin in test [1] (CAIA + P2-1, joint tissue Day 10, individual values, P = 0.04584) is 3.6 and 4 and 3.4 and 5.3 and 5.6 and 7.5 and 8. In addition, the “joint inflammation, in words” value in test [1] (P2-1 prophylactic) was “significantly reducing joint levels of sTNFRI and sTNFRII, the chemokine MIP-1γ/CCL9, and VCAM-1”. Further, the “joint tissue inflammation, in words” value in test [1] (P2-1 therapeutic, sTNFRI, sTNFRII, MIP-1γ/CCL9, VCAM-1, Day 10) is recorded as “significantly reduced CAIA-induced joint tissue inflammation”. Moreover, the “Ctsl mRNA upregulation” value in the test on human PBMCs (HMGB1 + P2-1 5.0 µg/ml, human PBMCs) is recorded as 2.4 ± 0.1 -fold. The “HMGB1-induced transcriptional changes, in words” value in the test on human PBMCs (HMGB1 with P2-1, human PBMCs) is given as “did not broadly reverse HMGB1-induced transcriptional changes in most genes”.
